From ChEMBL document CHEMBL3885881, “DrugMatrix”

Species on record: Rattus norvegicus
Assay: DrugMatrix - Regimen: Daily Repeat
Assay type: toxicity, organism-based, Sprague-Dawley
Set-up: regimen Daily Repeat, gender Male, age 6-8 weeks
Conditions: in vivo, po, route oral GAVAGE, […]; for ABSOLUTE BASOPHIL / ABSOLUTE EOSINOPHIL / ABSOLUTE LYMPHOCYTE / ABSOLUTE MONOCYTE / ABSOLUTE SEGMENTED NEUTROPHIL / BASOPHIL / EOSINOPHIL / ERYTHROCYTE COUNT / HEMATOCRIT / HEMOGLOBIN / LEUKOCYTE COUNT / LYMPHOCYTE / MEAN CORPUSCULAR HEMOGLOBIN / MEAN CORPUSCULAR HEMOGLOBIN CONCENTRATION / MEAN CORPUSCULAR VOLUME / MONOCYTE / NEUTROPHIL / NUCLEATED RED BLOOD CELLS / PLATELET COUNT: tissue Blood; for ALANINE AMINOTRANSFERASE / ALKALINE PHOSPHATASE / ASPARTATE AMINOTRANSFERASE / BLOOD UREA NITROGEN / CARBON DIOXIDE / CHLORIDE / CHOLESTEROL / CREATINE PHOSPHOKINASE / CREATININE / GLUCOSE / LACTATE DEHYDROGENASE / LIPASE / PHOSPHORUS / POTASSIUM / SODIUM / TOTAL BILIRUBIN / TOTAL PROTEIN / URIC ACID: tissue Plasma
[1] = 0 mg/kg, 72 h, dose level Control, time 3 day
[2] = 0 mg/kg, 120 h, dose level Control, time 5 day
[3] = 22 mg/kg, 72 h, dose level High, time 3 day

OCCN1CCN(CCCN2c3ccccc3Sc3ccc(C(F)(F)F)cc32)CC1 [FLUPHENAZINE]
ABSOLUTE BASOPHIL [1]: 0 CELLS/uL | ABSOLUTE EOSINOPHIL [1]: 0 CELLS/uL | ABSOLUTE LYMPHOCYTE [1]: 6275.67 CELLS/uL | ABSOLUTE MONOCYTE [1]: 40.67 CELLS/uL | ABSOLUTE SEGMENTED NEUTROPHIL [1]: 633.67 CELLS/uL | BASOPHIL [1]: 0% | EOSINOPHIL [1]: 0% | ERYTHROCYTE COUNT [1]: 5.2 x10E6/uL | HEMATOCRIT [1]: 32.78% | HEMOGLOBIN [1]: 12.98 G/DL | LEUKOCYTE COUNT [1]: 6.95 x10E3/uL | LYMPHOCYTE [1]: 90.17% | MEAN CORPUSCULAR HEMOGLOBIN [1]: 24.97 pg | MEAN CORPUSCULAR HEMOGLOBIN CONCENTRATION [1]: 39.62 G/DL | MEAN CORPUSCULAR VOLUME [1]: 63.03 fL | MONOCYTE [1]: 0.67% | NEUTROPHIL [1]: 9.17% | NUCLEATED RED BLOOD CELLS [1]: 0 /100WBC | PLATELET COUNT [1]: 1082.83 x10E3/uL | ALANINE AMINOTRANSFERASE [1]: 69.67 u/L | ALKALINE PHOSPHATASE [1]: 430.5 u/L | ASPARTATE AMINOTRANSFERASE [1]: 90.83 u/L | BLOOD UREA NITROGEN [1]: 13 mg/dL | CARBON DIOXIDE [1]: 33 mmol/L | CHLORIDE [1]: 99.17 MEQ/L | CHOLESTEROL [1]: 70.5 mg/dL | CREATINE PHOSPHOKINASE [1]: 253.33 u/L | CREATININE [1]: 0.13 mg/dL | GLUCOSE [1]: 157.17 mg/dL | LACTATE DEHYDROGENASE [1]: 85 u/L | LIPASE [1]: 10 u/L | PHOSPHORUS [1]: 10.2 mg/dL | POTASSIUM [1]: 5.78 MEQ/L | SODIUM [1]: 144.12 MEQ/L | TOTAL BILIRUBIN [1]: 0.2 mg/dL | TOTAL PROTEIN [1]: 5.8 G/DL | URIC ACID [1]: 0.8 mg/dL | ABSOLUTE BASOPHIL [2]: 0 CELLS/uL | ABSOLUTE EOSINOPHIL [2]: 0 CELLS/uL | ABSOLUTE LYMPHOCYTE [2]: 10431 CELLS/uL | ABSOLUTE MONOCYTE [2]: 90.5 CELLS/uL | ABSOLUTE SEGMENTED NEUTROPHIL [2]: 1111.83 CELLS/uL | BASOPHIL [2]: 0% | EOSINOPHIL [2]: 0% | ERYTHROCYTE COUNT [2]: 5.51 x10E6/uL | HEMATOCRIT [2]: 34.67% | HEMOGLOBIN [2]: 13.5 G/DL | LEUKOCYTE COUNT [2]: 11.63 x10E3/uL | LYMPHOCYTE [2]: 89.67% | MEAN CORPUSCULAR HEMOGLOBIN [2]: 24.5 pg | MEAN CORPUSCULAR HEMOGLOBIN CONCENTRATION [2]: 38.95 G/DL | MEAN CORPUSCULAR VOLUME [2]: 62.87 fL | MONOCYTE [2]: 0.67% | NEUTROPHIL [2]: 9.67% | NUCLEATED RED BLOOD CELLS [2]: 0 /100WBC | PLATELET COUNT [2]: 1052.67 x10E3/uL | ALANINE AMINOTRANSFERASE [2]: 54.67 u/L | ALKALINE PHOSPHATASE [2]: 359.83 u/L | ASPARTATE AMINOTRANSFERASE [2]: 83 u/L | BLOOD UREA NITROGEN [2]: 13.5 mg/dL | CARBON DIOXIDE [2]: 27.17 mmol/L | CHLORIDE [2]: 98.5 MEQ/L | CHOLESTEROL [2]: 66.83 mg/dL | CREATINE PHOSPHOKINASE [2]: 256.17 u/L | CREATININE [2]: 0.19 mg/dL | GLUCOSE [2]: 171.33 mg/dL | LACTATE DEHYDROGENASE [2]: 91.5 u/L | LIPASE [2]: 10.5 u/L | PHOSPHORUS [2]: 8.72 mg/dL | POTASSIUM [2]: 5.34 MEQ/L | SODIUM [2]: 142.53 MEQ/L | TOTAL BILIRUBIN [2]: 0.2 mg/dL | TOTAL PROTEIN [2]: 6.05 G/DL | URIC ACID [2]: 0.6 mg/dL | ABSOLUTE BASOPHIL [3]: 0 CELLS/uL | ABSOLUTE EOSINOPHIL [3]: 0 CELLS/uL | ABSOLUTE LYMPHOCYTE [3]: 7819 CELLS/uL | ABSOLUTE MONOCYTE [3]: 96.67 CELLS/uL | ABSOLUTE SEGMENTED NEUTROPHIL [3]: 384.33 CELLS/uL | BASOPHIL [3]: 0% | EOSINOPHIL [3]: 0% | ERYTHROCYTE COUNT [3]: 6.13 x10E6/uL | HEMATOCRIT [3]: 39.3% | HEMOGLOBIN [3]: 15.37 G/DL | LEUKOCYTE COUNT [3]: 8.3 x10E3/uL | LYMPHOCYTE [3]: 94.67% | MEAN CORPUSCULAR HEMOGLOBIN [3]: 25.03 pg | MEAN CORPUSCULAR HEMOGLOBIN CONCENTRATION [3]: 39.07 G/DL | MEAN CORPUSCULAR VOLUME [3]: 64.13 fL | MONOCYTE [3]: 1% | NEUTROPHIL [3]: 4.33% | NUCLEATED RED BLOOD CELLS [3]: 0 /100WBC | PLATELET COUNT [3]: 1324.33 x10E3/uL | ALANINE AMINOTRANSFERASE [3]: 35.33 u/L | ALKALINE PHOSPHATASE [3]: 274 u/L | ASPARTATE AMINOTRANSFERASE [3]: 77 u/L | BLOOD UREA NITROGEN [3]: 16.33 mg/dL | CARBON DIOXIDE [3]: 34 mmol/L | CHLORIDE [3]: 108.33 MEQ/L | CHOLESTEROL [3]: 92.67 mg/dL | CREATINE PHOSPHOKINASE [3]: 280 u/L | CREATININE [3]: 0.13 mg/dL | GLUCOSE [3]: 154 mg/dL | LACTATE DEHYDROGENASE [3]: 79.33 u/L | LIPASE [3]: 9.67 u/L | PHOSPHORUS [3]: 9.4 mg/dL | POTASSIUM [3]: 5.57 MEQ/L | SODIUM [3]: 156.07 MEQ/L | TOTAL BILIRUBIN [3]: 0.17 mg/dL | TOTAL PROTEIN [3]: 6.13 G/DL | URIC ACID [3]: 0.53 mg/dL
